From PubChem BioAssay AID248 (DTP/NCI, 2004)
Values joined by “and” are separate entries in the source; they are usually repeats but may differ in a detail not shown here. Identical values can stand only once. Toxic doses and inconclusive results are not listed.

Tested on: L1210 leukemia ip in BDF1 mice, survival T/C
Assay: NCI In Vivo Anticancer Drug Screen. Data for tumor model L1210 Leukemia (intraperitoneal) in B6D2F1 (BDF1) mice
Settings: endpoint: mean survival time, higher = longer survival
In short: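 Transplantable tumor model; survival measured in treated vs vehicle control mice. Value = treated/control.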

[1] = dose: 50.0 mg/kg/injection, schedule: Q01DX001 (ip), vehicle: saline
[2] = dose: 75.0 mg/kg/injection, schedule: Q01DX009 (ip), vehicle: saline
[3] = dose: 100.0 mg/kg/injection, schedule: Q01DX001 (ip), vehicle: saline
[4] = dose: 200.0 mg/kg/injection, schedule: Q01DX001 (ip), vehicle: saline
[5] = dose: 100.0 mg/kg/injection, schedule: Q01DX009 (ip), vehicle: Klucel (hydroxypropylcellulose) (HPC)
[6] = dose: 100.0 mg/kg/injection, schedule: Q04DX002 (ip), vehicle: saline
[7] = dose: 200.0 mg/kg/injection, schedule: Q04DX002 (ip), vehicle: saline
[8] = dose: 100.0 mg/kg/injection, schedule: Q04DX002 (ip), vehicle: Klucel (hydroxypropylcellulose) (HPC)
[9] = dose: 200.0 mg/kg/injection, schedule: Q04DX002 (ip), vehicle: Klucel (hydroxypropylcellulose) (HPC)

## C(CC1CO1)C1CO1 (stereo not given)
dose: 7.0 mg/kg/injection, schedule: Q01DX009 (ip), vehicle: acetone
  T/C: 197 % of control
dose: 9.0 mg/kg/injection, schedule: Q01DX Z (ip), vehicle: methylcellulose (MC)
  T/C: 118 % of control
dose: 9.2 mg/kg/injection, schedule: Q01DX009 (ip), vehicle: saline
  T/C: 102 % of control and 115 % of control
dose: 10.6 mg/kg/injection, schedule: Q01DX001 (ip), vehicle: acetone
  T/C: 102 % of control
dose: 10.6 mg/kg/injection, schedule: Q01DX009 (ip), vehicle: acetone
  T/C: 115 % of control
dose: 10.6 mg/kg/injection, schedule: Q04DX003 (ip), vehicle: acetone
  T/C: 112 % of control
dose: 10.6 mg/kg/injection, schedule: Q08DX002 (ip), vehicle: acetone
  T/C: 102 % of control
dose: 14.0 mg/kg/injection, schedule: Q01DX009 (ip), vehicle: acetone
  T/C: 152 % of control
dose: 14.0 mg/kg/injection, schedule: Q01DX009 (ip), vehicle: saline
  T/C: 102 % of control and 105 % of control
dose: 16.0 mg/kg/injection, schedule: Q01DX009 (ip), vehicle: acetone
  T/C: 115 % of control
dose: 16.0 mg/kg/injection, schedule: Q04DX003 (ip), vehicle: acetone
  T/C: 115 % of control
dose: 16.0 mg/kg/injection, schedule: Q08DX002 (ip), vehicle: acetone
  T/C: 112 % of control
dose: 18.0 mg/kg/injection, schedule: Q01DX Z (ip), vehicle: methylcellulose (MC)
  T/C: 122 % of control and 124 % of control
dose: 18.8 mg/kg/injection, schedule: Q01DX009 (ip), vehicle: saline
  T/C: 107 % of control
dose: 21.0 mg/kg/injection, schedule: Q01DX009 (ip), vehicle: saline
  T/C: 109 % of control and 116 % of control
dose: 22.0 mg/kg/injection, schedule: Q01DX001 (ip), vehicle: saline
  T/C: 109 % of control
dose: 24.0 mg/kg/injection, schedule: Q01DX001 (ip), vehicle: acetone
  T/C: 103 % of control
dose: 24.0 mg/kg/injection, schedule: Q04DX003 (ip), vehicle: acetone
  T/C: 124 % of control
dose: 24.0 mg/kg/injection, schedule: Q08DX002 (ip), vehicle: acetone
  T/C: 105 % of control
dose: 27.0 mg/kg/injection, schedule: Q01DX Z (ip), vehicle: methylcellulose (MC)
  T/C: 110 % of control and 116 % of control
dose: 33.0 mg/kg/injection, schedule: Q01DX001 (ip), vehicle: saline
  T/C: 107 % of control
dose: 36.0 mg/kg/injection, schedule: Q01DX001 (ip), vehicle: acetone
  T/C: 110 % of control
dose: 36.0 mg/kg/injection, schedule: Q04DX003 (ip), vehicle: acetone
  T/C: 124 % of control
dose: 36.0 mg/kg/injection, schedule: Q08DX002 (ip), vehicle: acetone
  T/C: 117 % of control
dose: 37.5 mg/kg/injection, schedule: Q01DX009 (ip), vehicle: saline
  T/C: 150 % of control
dose: 37.5 mg/kg/injection, schedule: Q04DX003 (ip), vehicle: saline sonified
  T/C: 113 % of control
dose: 40.0 mg/kg/injection, schedule: Q01DX Z (ip), vehicle: methylcellulose (MC)
  T/C: 108 % of control and 116 % of control
[1]
  T/C: 117 % of control
dose: 54.0 mg/kg/injection, schedule: Q01DX001 (ip), vehicle: acetone
  T/C: 121 % of control
dose: 54.0 mg/kg/injection, schedule: Q08DX002 (ip), vehicle: acetone
  T/C: 113 % of control
dose: 60.0 mg/kg/injection, schedule: Q01DX Z (ip), vehicle: methylcellulose (MC)
  T/C: 86 % of control
dose: 66.0 mg/kg/injection, schedule: Q01DX009 (ip), vehicle: acetone
  T/C: 168 % of control
dose: 66.0 mg/kg/injection, schedule: Q04DX003 (ip), vehicle: saline
  T/C: 117 % of control
[2]
  T/C: 175 % of control
dose: 75.0 mg/kg/injection, schedule: Q04DX003 (ip), vehicle: saline sonified
  T/C: 119 % of control
dose: 81.0 mg/kg/injection, schedule: Q01DX001 (ip), vehicle: acetone
  T/C: 118 % of control
dose: 81.0 mg/kg/injection, schedule: Q04DX003 (ip), vehicle: acetone
  T/C: 154 % of control
dose: 81.0 mg/kg/injection, schedule: Q08DX002 (ip), vehicle: acetone
  T/C: 123 % of control
[3]
  T/C: 118 % of control
dose: 100.0 mg/kg/injection, schedule: Q01DX009 (ip), vehicle: acetone
  T/C: 224 % of control
dose: 100.0 mg/kg/injection, schedule: Q04DX003 (ip), vehicle: acetone
  T/C: 161 % of control
dose: 150.0 mg/kg/injection, schedule: Q04DX003 (ip), vehicle: saline
  T/C: 101 % of control
[4]
  T/C: 121 % of control

## C=CCOC(=O)OCc1ccccc1
dose: 222.0 mg/kg/injection, schedule: Q01DX Z (ip), vehicle: methylcellulose (MC)
  T/C: 92 % of control
dose: 333.0 mg/kg/injection, schedule: Q01DX Z (ip), vehicle: methylcellulose (MC)
  T/C: 89 % of control

## NC(=O)C1(C(N)=O)CCC1
[5]
  T/C: 105 % of control
dose: 200.0 mg/kg/injection, schedule: Q01DX009 (ip), vehicle: Klucel (hydroxypropylcellulose) (HPC)
  T/C: 105 % of control
dose: 400.0 mg/kg/injection, schedule: Q01DX009 (ip), vehicle: Klucel (hydroxypropylcellulose) (HPC)
  T/C: 106 % of control

## CC(=O)c1ccc(CCC(=O)O)cc1
dose: 100.0 mg/kg/injection, schedule: Q04DX002 (ip), vehicle: saline with Tween-80
  T/C: 94 % of control
dose: 200.0 mg/kg/injection, schedule: Q04DX002 (ip), vehicle: saline with Tween-80
  T/C: 98 % of control
dose: 400.0 mg/kg/injection, schedule: Q04DX002 (ip), vehicle: saline with Tween-80
  T/C: 90 % of control

## COc1ccc(Nc2ccc(OC)cc2C(=O)O)cc1
dose: 75.0 mg/kg/injection, schedule: Q01DX001 (ip), vehicle: saline
  T/C: 102 % of control
[2]
  T/C: 89 % of control
dose: 150.0 mg/kg/injection, schedule: Q01DX001 (ip), vehicle: saline
  T/C: 102 % of control
dose: 150.0 mg/kg/injection, schedule: Q01DX009 (ip), vehicle: saline
  T/C: 104 % of control
dose: 300.0 mg/kg/injection, schedule: Q01DX001 (ip), vehicle: saline
  T/C: 104 % of control
dose: 300.0 mg/kg/injection, schedule: Q01DX009 (ip), vehicle: saline
  T/C: 101 % of control

## O=C1NC(c2cccc3ccccc23)Nc2cc(Cl)ccc21 (stereo not given)
dose: 50.0 mg/kg/injection, schedule: Q01DX009 (ip), vehicle: Klucel (hydroxypropylcellulose) (HPC)
  T/C: 109 % of control
[5]
  T/C: 112 % of control
dose: 150.0 mg/kg/injection, schedule: Q01DX009 (ip), vehicle: Klucel (hydroxypropylcellulose) (HPC)
  T/C: 118 % of control

## CSc1nc(Cl)cc(/N=C/N(C)C)n1
dose: 100.0 mg/kg/injection, schedule: Q04DX003 (ip), vehicle: saline with Tween-80
  T/C: 95 % of control
dose: 200.0 mg/kg/injection, schedule: Q04DX003 (ip), vehicle: saline with Tween-80
  T/C: 115 % of control
dose: 400.0 mg/kg/injection, schedule: Q04DX003 (ip), vehicle: saline with Tween-80
  T/C: 111 % of control

## O=C(O)Cc1cc2c(cc1[N+](=O)[O-])OCO2
[1]
  T/C: 103 % of control
[3]
  T/C: 97 % of control
[4]
  T/C: 97 % of control
dose: 400.0 mg/kg/injection, schedule: Q01DX001 (ip), vehicle: saline
  T/C: 103 % of control

## c1cc(C2OCCO2)cs1
dose: 50.0 mg/kg/injection, schedule: Q01DX009 (ip), vehicle: saline with Tween-80
  T/C: 86 % of control
dose: 100.0 mg/kg/injection, schedule: Q01DX009 (ip), vehicle: saline with Tween-80
  T/C: 86 % of control

## CCCCCOC(c1ccc2c(c1)OCO2)C(C)Br (stereo not given)
[6]
  T/C: 96 % of control
[7]
  T/C: 104 % of control
dose: 400.0 mg/kg/injection, schedule: Q04DX002 (ip), vehicle: saline
  T/C: 90 % of control

## CN1c2ccc(Br)c[c]2[Sn]2([c]3cc(Br)ccc31)[c]1cc(Br)ccc1N(C)c1ccc(Br)c[c]12
dose: 100.0 mg/kg/injection, schedule: Q01DX001 (ip), vehicle: steriod suspending solution
  T/C: 104 % of control
dose: 200.0 mg/kg/injection, schedule: Q01DX001 (ip), vehicle: steriod suspending solution
  T/C: 107 % of control
dose: 400.0 mg/kg/injection, schedule: Q01DX001 (ip), vehicle: steriod suspending solution
  T/C: 109 % of control

## COc1c(O)c2c(=O)cc3c4c5c(cc(=O)c6c(O)c(OC)c(CC(C)O)c(c(c1CC(C)O)c24)c65)OCO3 (stereo not given)
[8]
  T/C: 109 % of control
[9]
  T/C: 102 % of control
dose: 400.0 mg/kg/injection, schedule: Q04DX002 (ip), vehicle: Klucel (hydroxypropylcellulose) (HPC)
  T/C: 102 % of control

## N#CC(CCCc1cccc(N2CN=C(N)N=C2N)c1)c1ccccc1 (stereo not given)
[1]
  T/C: 96 % of control

## CCCOP(=O)(N1CC1(C)C)N1CC1(C)C (stereo not given)
[6]
  T/C: 201 % of control
[7]
  T/C: 155 % of control

## N=C(N)SC1c2ccccc2-c2cc([N+](=O)[O-])ccc21 (stereo not given)
dose: 100.0 mg/kg/injection, schedule: Q01DX005 (ip), vehicle: Klucel (hydroxypropylcellulose) (HPC)
  T/C: 105 % of control
[8]
  T/C: 101 % of control
dose: 200.0 mg/kg/injection, schedule: Q01DX005 (ip), vehicle: Klucel (hydroxypropylcellulose) (HPC)
  T/C: 98 % of control
[9]
  T/C: 114 % of control
